# Results taken from patent publication US4550159A, “Anthracycline compounds” (Microbial Chemistry Research Foundation, priority 1982, dated 1985).
# Key:
# L1210 leukemia cells = experiment: Antitumor activity, increase of life span, L1210 leukemia cells in CDF1 mice; format: in vivo; details: intraperitoneal, 10 days
# Protocol: To CDF1 mice were intraperitoneally transplanted 1×10^5 L1210 leukemia cells/mouse as a suspension. After the transplantation, each 0.25 ml of a solution containing the test compound was intraperitoneally injected for 10 days, beginning on the day of transplantation. […] The increase of life span (%) compared with the control group consisting of mice administered with physiological saline solution instead of the test compound was calculated from the following equation: [formula]
# Solubility = format: physicochemical
# L1210 cells [1] = experiment: Cytotoxicity, RNA synthesis in L1210 cells; format: cell-based; details: Mus musculus, read-out: ID50, RNA synthesis
# From the text: (§1) The results are shown below.
# S. aureus 209 P = experiment: Antimicrobial activity, MIC by agar dilution method; format: cell-based; details: Staphylococcus aureus
# From the text: (§2) The antimicrobial activity of ditrisarubicin according to the present invention was examined. It is expressed as minimum inhibitory concentration (MIC) determined by the agar dilution method.
# Sal. typhi T-63 = experiment: as above; format: cell-based; details: Salmonella enterica; Sal. typhi T-63, agar dilution method
# From the text: as §2
# E. coli NIHJ = experiment: as above; format: cell-based; details: Escherichia coli
# From the text: as §2
# [2] = system: M. lysodeikticus IFO 3333; experiment: as above; format: cell-based; details: Micrococcus luteus, IFO3333; M. lysodeikticus IFO 3333, agar dilution method
# From the text: as §2
# S. aureus Smith = experiment: as above; format: cell-based; details: Staphylococcus aureus
# From the text: as §2
# Serr. marcessens = experiment: as above; format: cell-based
# From the text: as §2
# B. cereus ATCC 10702 = experiment: as above; format: cell-based; details: Bacillus cereus, ATCC10702; B. cereus ATCC 10702, agar dilution method
# From the text: as §2
# Prot. vulgaris OX19 = experiment: as above; format: cell-based; details: Proteus vulgaris
# From the text: as §2
# S. aureus MS9610 = experiment: as above; format: cell-based; details: Staphylococcus aureus
# From the text: as §2
# B. subtilis PCI 219 = experiment: as above; format: cell-based; details: Bacillus subtilis, PCI219; B. subtilis PCI 219, agar dilution method
# From the text: as §2
# K. pnuemoniae PCI 602 = experiment: as above; format: cell-based; details: K. pnuemoniae PCI 602, agar dilution method
# From the text: as §2
# Coryn. bovis 1810 = experiment: as above; format: cell-based; details: Corynebacterium bovis; Coryn. bovis 1810, agar dilution method
# From the text: as §2
# S. aureus MS8710 = experiment: as above; format: cell-based; details: Staphylococcus aureus
# From the text: as §2
# Pseu. aeruginosa A3 = experiment: as above; format: cell-based; details: Pseudomonas aeruginosa
# From the text: as §2
# L1210 cells [3] = experiment: Cytotoxicity, growth of L1210 cells; format: cell-based; details: Mus musculus, read-out: ID50, growth
# From the text: as §1
# L1210 cells [4] = experiment: Cytotoxicity, DNA synthesis in L1210 cells; format: cell-based; details: Mus musculus, read-out: ID50, DNA synthesis
# From the text: as §1
# L1210 cells [5] = experiment: Cytotoxicity, protein synthesis in L1210 cells; format: cell-based; details: Mus musculus; for IC50: read-out: ID50, protein synthesis
# From the text: as §1
SMILES,Increase of life span (L1210 leukemia cells; 0.016 mg/kg/day) [%],Increase of life span (L1210 leukemia cells; 0.031 mg/kg/day) [%],Increase of life span (L1210 leukemia cells; 0.063 mg/kg/day) [%],Increase of life span (L1210 leukemia cells; 0.125 mg/kg/day) [%],Increase of life span (L1210 leukemia cells; 0.25 mg/kg/day) [%],"Solubility in methanol, acetone, ethyl acetate, chloroform, acetonitrile and DMSO (Solubility)","Solubility in water, n-hexane and petroleum ether (Solubility)",IC50 (L1210 cells [1]) [µg/mL],MIC (S. aureus 209 P) [µg/mL],MIC (Sal. typhi T-63) [µg/mL],MIC (E. coli NIHJ) [µg/mL],MIC [2] [µg/mL],MIC (S. aureus Smith) [µg/mL],MIC (Serr. marcessens) [µg/mL],MIC (B. cereus ATCC 10702) [µg/mL],MIC (Prot. vulgaris OX19) [µg/mL],MIC (S. aureus MS9610) [µg/mL],MIC (B. subtilis PCI 219) [µg/mL],MIC (K. pnuemoniae PCI 602) [µg/mL],MIC (Coryn. bovis 1810) [µg/mL],other results
CCC1(O)CC(OC2CC(N(C)C)C(OC3CC4OC5CC(=O)C(C)OC5OC4C(C)O3)C(C)O2)c2c(O)c3c(c(O)c2C1OC1CC(N(C)C)C(OC2CCC(OC4C=CC(=O)C(C)O4)C(C)O2)C(C)O1)C(=O)c1cccc(O)c1C3=O (stereo not drawn) [Ditrisarubicin C],142,182,142,148,114,soluble,sparingly soluble,0.014,< 0.2,> 50,> 50,< 0.2,0.39,50,0.39,50,< 0.2,0.39,> 50,< 0.2,MIC (S. aureus MS8710): < 0.2 µg/mL; MIC (Pseu. aeruginosa A3): 25 µg/mL; IC50 (L1210 cells [3]): 0.0007 µg/mL; IC50 (L1210 cells [4]): 0.14 µg/mL; IC50 (L1210 cells [5]): 3.2 µg/mL
CCC1(O)CC(OC2CC(N(C)C)C(OC3CC4OC5CC(=O)C(C)OC5OC4C(C)O3)C(C)O2)c2c(O)c3c(c(O)c2C1OC1CC(N(C)C)C(OC2CC4OC5CC(=O)C(C)OC5OC4C(C)O2)C(C)O1)C(=O)c1cccc(O)c1C3=O (stereo not drawn) [Ditrisarubicin B],114,136,148,159,108,soluble,sparingly soluble,0.029,< 0.2,> 50,> 50,< 0.2,0.78,50,0.39,50,0.39,0.39,50,< 0.2,MIC (S. aureus MS8710): 0.39 µg/mL; MIC (Pseu. aeruginosa A3): 25 µg/mL; IC50 (L1210 cells [3]): 0.0011 µg/mL; IC50 (L1210 cells [4]): 0.29 µg/mL; inhibition at 10 µg/mL (L1210 cells [5]; with 10 γ/ml): 23.3%
CCC1(O)CC(OC2CC(N(C)C)C(OC3CC4OC5CC(=O)C(C)OC5OC4C(C)O3)C(C)O2)c2c(O)c3c(c(O)c2C1OC1CC(N(C)C)C(OC2CC(O)C(OC4CCC(=O)C(C)O4)C(C)O2)C(C)O1)C(=O)c1cccc(O)c1C3=O (stereo not drawn) [Ditrisarubicin A],136,148,148,119,91,soluble,sparingly soluble,0.023,< 0.2,50,50,< 0.2,0.39,50,0.39,50,0.39,< 0.2,50,0.78,MIC (S. aureus MS8710): < 0.2 µg/mL; MIC (Pseu. aeruginosa A3): 12.5 µg/mL; IC50 (L1210 cells [3]): 0.0005 µg/mL; IC50 (L1210 cells [4]): 0.31 µg/mL; IC50 (L1210 cells [5]): 8.5 µg/mL
